What was measured:
Assay type in all cases: cell-based
KDM5B = target: T1, KDM5B (Homo sapiens, UniProt Q9UGL1); assay: Histone lysine demethylase immunofluorescence assay, U2OS cells transfected with KDM5B; conditions: U2OS cells transfected with pCMVHA KDM5B; mark detected H3K4me2; 20 hours
T1 construct: (a.a. 1-752); host or cells: U2OS
T1 sequence (Q9UGL1 1-752): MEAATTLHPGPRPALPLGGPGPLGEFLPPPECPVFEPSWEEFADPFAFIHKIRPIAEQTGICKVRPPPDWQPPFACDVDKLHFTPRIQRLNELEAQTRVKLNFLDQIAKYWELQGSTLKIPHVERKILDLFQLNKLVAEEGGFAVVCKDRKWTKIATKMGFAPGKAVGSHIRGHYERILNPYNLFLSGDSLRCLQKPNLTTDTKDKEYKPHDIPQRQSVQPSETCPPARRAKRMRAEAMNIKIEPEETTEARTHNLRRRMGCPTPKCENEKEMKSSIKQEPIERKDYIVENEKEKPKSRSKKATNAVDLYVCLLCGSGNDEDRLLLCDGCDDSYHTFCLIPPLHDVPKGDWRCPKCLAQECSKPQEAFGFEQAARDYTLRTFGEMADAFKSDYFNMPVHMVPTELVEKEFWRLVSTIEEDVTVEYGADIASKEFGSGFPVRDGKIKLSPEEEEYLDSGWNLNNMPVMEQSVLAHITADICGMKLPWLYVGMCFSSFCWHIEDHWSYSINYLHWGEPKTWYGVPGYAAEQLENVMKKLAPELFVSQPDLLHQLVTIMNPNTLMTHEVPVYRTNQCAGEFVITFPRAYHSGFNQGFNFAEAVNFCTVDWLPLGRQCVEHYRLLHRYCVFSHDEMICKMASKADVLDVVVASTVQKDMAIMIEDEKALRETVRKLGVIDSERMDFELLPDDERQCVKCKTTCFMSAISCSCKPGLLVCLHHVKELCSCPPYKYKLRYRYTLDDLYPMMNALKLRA
Protocol: (§1) U2OS cells were seeded 24 hours before transfection. Transfection was performed with Fugene HD transfection reagent as recommended by the manufacturer. 6 hours after transfection, the cells were harvested and seeded into multi well plates into media containing compound. The media used was DMEM containing 10% FBS and pen/strep. 20 hours after incubation of cells with compounds, the cells were washed in PBS, harvested by fixation with formaldehyde 4% aqueous solution, and washed in PBS. Subsequently, the cells were permeabilized in PBS with 0.2% Triton X-100 for. Blocking was performed in PBS with 0.2% Triton X-100 and 5% FBS. The cells were incubated with primary antibodies in blocking solution over night at 4° C. The primary antibodies used in the assays were HA.11 (Covance, MMS-101P) and the antibody detecting the mark specified in the table below. After incubation with primary antibodies, the cells were washed with PBS, incubated with secondary antibodies (Alexa fluor 594 goat anti rabbit IgG, Invitrogen, A11012; Alexa flour 488 donkey anti mouse IgG, Invitrogen, A21202) and Hoechst, (Sigma, 33342) in blocking solution, and washed again with PBS. Finally, PBS was added and high throughput imaging and analysis were performed by an IN Cell Analyzer 1000 (GE Healthcare). The robot software analyzed individual cells and divided these into HA+ (transfected cells) and HA− (non-transfected cells). The IC50 values were based on an average measure of the staining of the mark specified in the table below in the transfected cells.

KDM2A = target: T2, KDM2A (Homo sapiens, UniProt Q9Y2K7); assay: Histone lysine demethylase immunofluorescence assay, U2OS cells transfected with KDM2A; conditions: U2OS cells transfected with pCMVHA KDM2A; mark detected H3K36me2; 20 hours
T2 construct: Full length; host or cells: U2OS
T2 sequence (Q9Y2K7 1-1162): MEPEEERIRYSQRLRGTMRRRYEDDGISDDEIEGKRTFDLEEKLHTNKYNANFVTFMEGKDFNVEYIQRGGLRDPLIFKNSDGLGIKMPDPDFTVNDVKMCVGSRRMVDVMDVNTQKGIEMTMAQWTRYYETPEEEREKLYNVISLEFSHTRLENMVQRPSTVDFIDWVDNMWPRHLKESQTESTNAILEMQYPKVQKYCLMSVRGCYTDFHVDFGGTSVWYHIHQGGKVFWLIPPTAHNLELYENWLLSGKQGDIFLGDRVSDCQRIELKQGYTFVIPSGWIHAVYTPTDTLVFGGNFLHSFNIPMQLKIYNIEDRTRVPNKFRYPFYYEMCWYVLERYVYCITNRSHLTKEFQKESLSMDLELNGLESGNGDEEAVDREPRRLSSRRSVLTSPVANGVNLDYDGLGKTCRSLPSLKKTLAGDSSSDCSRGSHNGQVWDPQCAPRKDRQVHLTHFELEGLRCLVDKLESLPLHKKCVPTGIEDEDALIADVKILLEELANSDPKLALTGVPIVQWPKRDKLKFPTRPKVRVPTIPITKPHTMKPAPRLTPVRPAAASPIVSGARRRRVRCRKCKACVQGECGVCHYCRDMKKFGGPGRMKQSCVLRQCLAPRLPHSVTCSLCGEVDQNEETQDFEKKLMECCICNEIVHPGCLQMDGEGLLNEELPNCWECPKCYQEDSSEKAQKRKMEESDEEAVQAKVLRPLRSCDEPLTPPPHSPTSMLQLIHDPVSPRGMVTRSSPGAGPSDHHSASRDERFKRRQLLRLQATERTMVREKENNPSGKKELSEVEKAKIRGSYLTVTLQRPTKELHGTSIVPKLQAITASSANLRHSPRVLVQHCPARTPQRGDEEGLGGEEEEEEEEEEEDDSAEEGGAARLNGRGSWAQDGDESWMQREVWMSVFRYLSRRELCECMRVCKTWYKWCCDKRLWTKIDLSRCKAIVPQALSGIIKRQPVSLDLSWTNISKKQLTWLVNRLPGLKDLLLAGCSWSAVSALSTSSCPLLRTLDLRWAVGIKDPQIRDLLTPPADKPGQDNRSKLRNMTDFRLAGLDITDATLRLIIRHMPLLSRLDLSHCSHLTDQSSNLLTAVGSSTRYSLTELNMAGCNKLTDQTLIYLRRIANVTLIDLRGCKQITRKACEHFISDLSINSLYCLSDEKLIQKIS
Protocol: as §1

KDM4C = target: T3, KDM4C (Homo sapiens, UniProt Q9H3R0); assay: Histone lysine demethylase immunofluorescence assay, U2OS cells transfected with KDM4C; conditions: U2OS cells transfected with pCMVHA KDM4C; mark detected H3K9me3; 20 hours
T3 construct: Full length; host or cells: U2OS
T3 sequence (Q9H3R0 1-1056): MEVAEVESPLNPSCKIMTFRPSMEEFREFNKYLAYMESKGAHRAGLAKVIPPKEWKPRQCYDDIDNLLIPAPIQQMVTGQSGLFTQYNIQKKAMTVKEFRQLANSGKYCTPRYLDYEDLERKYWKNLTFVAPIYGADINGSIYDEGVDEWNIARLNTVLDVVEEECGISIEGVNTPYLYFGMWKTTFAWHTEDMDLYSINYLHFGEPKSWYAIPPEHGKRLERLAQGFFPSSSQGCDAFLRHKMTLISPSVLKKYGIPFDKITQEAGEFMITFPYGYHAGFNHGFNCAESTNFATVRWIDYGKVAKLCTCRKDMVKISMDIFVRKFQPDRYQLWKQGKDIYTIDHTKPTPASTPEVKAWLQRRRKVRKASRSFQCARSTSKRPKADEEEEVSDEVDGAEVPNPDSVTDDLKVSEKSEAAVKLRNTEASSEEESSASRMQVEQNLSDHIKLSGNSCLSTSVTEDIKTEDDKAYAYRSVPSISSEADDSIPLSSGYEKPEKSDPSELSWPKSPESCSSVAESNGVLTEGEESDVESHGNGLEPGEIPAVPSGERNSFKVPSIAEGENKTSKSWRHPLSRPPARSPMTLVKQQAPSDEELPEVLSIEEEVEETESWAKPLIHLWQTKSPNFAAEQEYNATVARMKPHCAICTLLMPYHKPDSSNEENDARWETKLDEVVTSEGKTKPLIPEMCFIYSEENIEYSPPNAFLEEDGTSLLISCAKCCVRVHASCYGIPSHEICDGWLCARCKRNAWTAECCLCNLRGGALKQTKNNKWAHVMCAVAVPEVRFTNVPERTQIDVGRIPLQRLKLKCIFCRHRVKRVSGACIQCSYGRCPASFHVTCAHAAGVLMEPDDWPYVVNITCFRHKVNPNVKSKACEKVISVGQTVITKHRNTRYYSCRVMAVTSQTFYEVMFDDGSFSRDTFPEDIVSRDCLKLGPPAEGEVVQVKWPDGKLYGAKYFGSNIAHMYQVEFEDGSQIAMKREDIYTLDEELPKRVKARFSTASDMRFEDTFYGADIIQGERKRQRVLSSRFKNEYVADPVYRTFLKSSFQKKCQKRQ
Protocol: as §1

Measured: IC50

CN(CCc1ccccc1)C(=O)CNCc1cc(/C=N/CCO)ccn1 [Compound 96, 2-[{4-[([(2-hydroxyethyl)imino]-methyl]pyridin-2-yl}methyl)amino]-N-methyl-N-(2-phenylethyl)acetamide]
> 2500 nM: all assays above

— patent publication US9650339B2, “Inhibitors of histone demethylases” (Gilead Sciences, Inc., priority 2013, dated 2017)
